Values joined by “and” are separate entries in the source; they are usually repeats but may differ in a detail not shown here. Equal values may be shown once. Read-outs that look alike come from different tables or passages of the source.
Legend:
CYP3A4 (BDGentest) = target: T1, CYP3A4 (BDGentest) (Homo sapiens, UniProt P08684); experiment: New CYP3A4 bioassay with dibenzylfluorescein (DBF) substrate (Foster et al. 2011); format: biochemical; settings: for IC50: human microsomes; for % Activity relative to dillapiol = 1: new CYP3A4 bioassay, inhibition relative to dillapiol
T1 construct: purchased BDGentest
T1 sequence (P08684 whole entry): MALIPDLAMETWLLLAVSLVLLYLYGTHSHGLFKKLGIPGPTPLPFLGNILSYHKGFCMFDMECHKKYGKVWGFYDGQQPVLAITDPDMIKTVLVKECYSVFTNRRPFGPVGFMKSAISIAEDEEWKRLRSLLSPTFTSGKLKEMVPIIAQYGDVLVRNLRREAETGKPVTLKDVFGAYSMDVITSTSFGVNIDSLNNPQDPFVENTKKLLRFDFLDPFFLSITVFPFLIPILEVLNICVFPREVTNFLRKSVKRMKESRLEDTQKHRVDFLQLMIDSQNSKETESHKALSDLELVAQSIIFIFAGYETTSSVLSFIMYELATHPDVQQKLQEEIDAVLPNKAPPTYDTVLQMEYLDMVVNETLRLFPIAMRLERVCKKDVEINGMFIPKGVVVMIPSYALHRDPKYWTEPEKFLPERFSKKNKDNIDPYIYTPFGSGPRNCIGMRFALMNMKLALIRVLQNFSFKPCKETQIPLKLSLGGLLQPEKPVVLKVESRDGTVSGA
Procedure: (§1) In the second set of experiments, new CYP3A4 enzyme inhibition assays were conducted with a designed set of analogs and newer method described by Foster et al. (J. Agric. Food Chem, 2011, 59(9):5159-5163). This assay using the substrate dibenzylfluorescein (DBF) is considered more representative of CYP3A4 activity as compared to the benzyloxyresorufin assay previously used (Budzinski et al., 2000, Phytomedicine, 7(4):273-282).
(§2) Aliquots (10 μL) of stock solutions of the undiluted products were screened for their ability to inhibit CYP3A4 (BDGentest) metabolism of the non-fluorescent dibenzylfluorescein (DBF) substrates to the fluorescent metabolite using an in vitro fluorometric microtiter plate assay (CytoFluor Series 4000 multi-well plate reader). Briefly, assays were performed with 10 μL of product in clear-bottom, opaque-welled microtiter plates (96 well, Corning Costar). Control and control blank wells contained 5% ethanol, and test and test blank wells contained the product. All wells tested contained distilled water, β-nicotinamide adenine dinucleotide phosphate, reduced form (NADPH, Sigma Chemicals), and the enzyme substrate DBF (final concentration of 1 μM/well), for a total reaction volume of 200 μL. Control and test wells also contained live isozyme, within human microsomes, in phosphate buffer solution (PBS; 0.5 M, pH 7.4), and control blank and test blank wells contained denatured isoenzyme in PBS. Fluorescence was measured at 485 nm excitation and 530 nm emission, with a gain of 50.

CYP3A4 = target: T2, CYP3A4 (Homo sapiens, UniProt P08684); experiment: as above; format: biochemical; settings: human, CYP3A4 (BDGentest) isozyme within human microsomes, pH 7.4, probe dibenzylfluorescein (DBF), 1 μM final, DBF substrate 1 μM, human microsomes
T2 construct: purchased BDGentest
T2 sequence (P08684 whole entry): as above
Procedure: as §1, §2

human cytochrome CYP3A4 [1] = target: T3, human cytochrome CYP3A4 (Homo sapiens, UniProt P08684); experiment: CYP3A4 inhibition assay of dillapiol derivatives (earlier benzyloxyresorufin assay); format: biochemical; settings: for Rel. Activity Dillapiol = 1.0: CYP3A4 inhibition relative to dillapiol
T3 sequence (P08684 whole entry): as above
Procedure: A suite of dillapiol derivatives were synthesized and assayed for their capacity to inhibit human cytochrome CYP3A4. For each molecule, experimental IC50 values for CYP3A4 inhibition were determined. These IC50 values together with the log of the octanol-water partition coefficient (logP) and molecular refractivity (MR) are shown in Table 1, and were used as parameters to model a quantitative structure-activity relationship (QSAR). The resulting equations were used to guide the design of further derivatives with enhanced CYP3A4 inhibition.
as §1

mosquito larvae = settings: co-administration of dillapiol with alpha-terthienyl; increased toxicity in mosquito larvae; cited from earlier work
human cytochrome CYP3A4 [2] = target: T3, human cytochrome CYP3A4; settings: Budzinski et al., 2000; cited from earlier work
parasitemia = settings: co-administration of dillapiol with genudin, mice; cited from earlier work
[3] = DBF substrate 1 μM, read-out: IC50 (converted)
[4] = Table 1, CYP3A4 inhibition, read-out: IC50

Structure (SMILES) | IC50 (CYP3A4 (BDGentest); [3]) | % Activity relative to dillapiol = 1 (CYP3A4 (BDGentest)) | Rel. Activity Dillapiol = 1.0 (human cytochrome CYP3A4 [1]; Table 1) | IC50 (human cytochrome CYP3A4 [1]; [4]) | also measured
COc1c(CCCO)cc2c(c1OC)OCO2 | 16.6 µM | 0.57 |  |  | IC50 (CYP3A4): 16 µM
C=CCc1cc2c(c(C(O)CCCCCCCC)c1OC)OCO2 (single isomer, unassigned) [Compound 7] |  |  | 2.2 | 190 µM | 
COc1c(/C=C/CC(O)(c2ccccc2)c2ccccc2)cc2c(c1OC)OCO2 [Compound 1] | 1.58 µM | 5.8 | 100 and 114 | 3.6 µM | CYP3A4 inhibition (in words) (CYP3A4 (BDGentest)): increased inhibition of CYP3A4 compared to dillapiol; CYP3A4 inhibition compared with dillapiol (in words) (human cytochrome CYP3A4 [1]; Table 1): at least four times lower than dillapiol
C=CCc1cc2c(c(C(O)CCCCCCCC)c1OC)OCO2 (stereo not drawn) [Compound 2] |  |  | 15 | 26 µM | CYP3A4 inhibition compared with dillapiol (in words) (human cytochrome CYP3A4 [1]; Table 1): at least four times lower than dillapiol
C=CCc1cc2c(c(OCCCCCCCC)c1OC)OCO2 [Compound 3] |  |  | 1.3 | 320 µM | 
C=CCc1cc2c(c(CO)c1OC)OCO2 [Compound 4] |  |  | 0.45 | 900 µM | 
C=CCc1cc2c(c(COC)c1OC)OCO2 [Compound 5] |  |  | 1.3 | 320 µM | 
C=CCc1cc2c(c(/C=C/C(=O)OC)c1OC)OCO2 [Compound 6] |  |  | 1.7 | 240 µM | 
C=CCc1cc2c(c(C=O)c1OC)OCO2 [Compound 8] |  |  | 0.66 | 620 µM | 
C=CCc1cc2c(c(CC=C)c1OC)OCO2 [Compound 9] |  |  | 2.0 |  | IC50 (human cytochrome CYP3A4 [1]): 810 µM
C=CCc1cc2c(c(O)c1OC)OCO2 [Compound 10] |  |  | 0.26 |  | IC50 (human cytochrome CYP3A4 [1]): 1600 µM
C=CCc1cc2c(c(CC=C)c1O)OCO2 [Compound 11] |  |  | 1.9 | 210 µM | 
COc1c(CCCOC(=O)c2ccccc2)cc2c(c1OC)OCO2 [Compound 12] | 2.1 µM and 2.11 µM | 4.4 | 29 | 14 µM | CYP3A4 inhibition (in words) (CYP3A4 (BDGentest)): increased inhibition of CYP3A4 compared to dillapiol; CYP3A4 inhibition compared with dillapiol (in words) (human cytochrome CYP3A4 [1]; Table 1): at least four times lower than dillapiol
C=CCc1cc2c(c(COCC(=O)OCC)c1OC)OCO2 [Compound 13] |  |  | 4.2 | 98 µM | CYP3A4 inhibition compared with dillapiol (in words) (human cytochrome CYP3A4 [1]; Table 1): at least four times lower than dillapiol
C=CCc1cc2c(cc1O)OCO2 [Compound 14] |  |  | 0.75 | 550 µM | 
C=CCc1cc2c(c(S(C)(=O)=O)c1OC)OCO2 [Compound 15] |  |  | 0.37 | 1100 µM | 
C=CCc1cc2c(c(Sc3ccccc3)c1OC)OCO2 [Compound 16] |  |  | 0.84 | 480 µM | 
C=CCc1cc2c(c(Br)c1O)OCO2 [Compound 17] |  |  | 0.68 | 600 µM | 
C=CCc1cc2c(c(SC)c1OC)OCO2 [Compound 18] |  |  | 1.3 |  | IC50 (human cytochrome CYP3A4 [1]): 320 µM
C=CCc1cc2c(c(SC)c1O)OCO2 [Compound 19] |  |  | 1.0 | 420 µM | 

Structure (SMILES) | IC50 (CYP3A4 (BDGentest); [3]) | % Activity relative to dillapiol = 1 (CYP3A4 (BDGentest)) | Rel. Activity Dillapiol = 1.0 (human cytochrome CYP3A4 [1]; Table 1) | IC50 (human cytochrome CYP3A4 [1]; [4]) | also measured
C=CCc1cc2c(c(Sc3ccc(OC)cc3)c1OC)OCO2 [Compound 22] |  |  | 0.67 | 660 µM | 
C=CCc1cc2c(c(S(=O)(=O)c3ccc(OC)cc3)c1O)OCO2 [Compound 23] |  |  | 1.8 | 230 µM | 
C=CCc1cc2c(c(SCc3ccccc3)c1O)OCO2 [Compound 24] |  |  | 1.6 |  | 
C=CCc1cc2c(c(SCc3ccccc3)c1OC)OCO2 [Compound 25] |  |  | 9 and 9.3 | 44 µM | CYP3A4 inhibition compared with dillapiol (in words) (human cytochrome CYP3A4 [1]; Table 1): at least four times lower than dillapiol
C=CCc1cc2c(c([S+]([O-])c3ccccc3)c1OC)OCO2 (stereo not drawn) [Compound 26] |  |  | 2.7 | 150 µM | 
C=CCc1cc2c(c([S+]([O-])Cc3ccccc3)c1OC)OCO2 (stereo not drawn) [Compound 27] |  |  | 6.4 | 64 µM | CYP3A4 inhibition compared with dillapiol (in words) (human cytochrome CYP3A4 [1]; Table 1): at least four times lower than dillapiol
COc1c(C/C=C/Cc2cc3c(c(OC)c2OC)OCO3)cc2c(c1OC)OCO2 [Compound 56] | 1.8 µM | 5.1 |  |  | % Activity relative to dillapiol = 1 (CYP3A4 (BDGentest); listed as drawing 59): 5.1
OC(CCCC/C=C/c1ccc2c(c1)OCO2)(c1ccccc1)c1ccccc1 [Compound 59] | 0.54 µM and 0.517 µM | 17 |  |  | 
COc1cc2c(cc1CCCOC(=O)C(c1ccccc1)c1ccccc1)OCO2 [Compound 61] | 0.47 µM | 19.5 |  |  | CYP3A4 inhibition (in words) (CYP3A4 (BDGentest)): strong CYP3A4 inhibitors
COc1cc2c(cc1CCCOC(=O)c1ccccc1)OCO2 [Compound 63] |  |  |  |  | CYP3A4 inhibition (in words) (CYP3A4 (BDGentest)): strong CYP3A4 inhibitors
COc1ccc(OC)c(COc2cc3c(cc2CCCOC(=O)C(c2ccccc2)c2ccccc2)OCO3)c1 [Compound 69] |  |  |  |  | CYP3A4 inhibition (in words) (CYP3A4 (BDGentest)): strong CYP3A4 inhibitors
O=C(OCCCc1cc2c(cc1OCc1ccccc1)OCO2)C(c1ccccc1)c1ccccc1 [Compound 70] |  | 4 |  |  | CYP3A4 inhibition (in words) (CYP3A4 (BDGentest)): strong CYP3A4 inhibitors
C=CCc1cc2c(c(OC)c1OC)OCO2 [dillapiol, 4,5 dimethoxy-6-(2-propenyl)-1,3-benzodioxole] |  | 1 | 1.0 |  | synergism factor (mosquito larvae): 1.9; IC50 (CYP3A4 (BDGentest); IC50, DBF substrate 1 μM): 9.45 µM; IC50 (human cytochrome CYP3A4 [1]): 410 µM; inhibition of human cytochrome P450 3A4 (in words) (human cytochrome CYP3A4 [2]): inhibits the human cytochrome P450 3A4 (CYP3A4) enzyme; increase of parasitemia clearance (parasitemia): 29%
C=CCc1cc2c(cc1O)OCO2 [drawing 54] | > 28.1 µM |  |  |  | 
COc1c(CCCOC(=O)C(c2ccccc2)c2ccccc2)cc2c(c1OC)OCO2 [drawing 58] | 0.434 µM | 21.15 |  |  | 
COc1ccc(OC)c(COc2cc3c(cc2CCCOC(=O)c2ccccc2)OCO3)c1 [drawing 60] | 0.36 µM and 0.355 µM | 25.5 |  |  | 
COc1c(C/C=C/Cc2cc3c(c(OC)c2OC)OCO3)cc2c(c1OC)OCO2 [drawing 66] | 1.44 µM | 6.3 |  |  | 
COc1cc2c(cc1CCCOC(=O)c1ccccc1)OCO2 [drawing 73] | 2.07 µM | 4.4 |  |  | 
COc1ccc(OC)c(COc2cc3c(cc2CCCOC(=O)C(c2ccccc2)c2ccccc2)OCO3)c1 [drawing 79] | 0.23 µM | 41 |  |  | 
O=C(OCCCc1cc2c(cc1OCc1ccccc1)OCO2)C(c1ccccc1)c1ccccc1 [drawing 80] | 0.62 µM and 0.624 µM | 14 |  |  | 

— patent US9386767B2, “Derivatives of dillapiol and related monolignans and use thereof” (UNIVERSITY OF OTTAWA, priority 2011, dated 2016)
